According to patent publication US12637459B2, “Solid state forms of Lorecivivint” (TAPI CZECH INDUSTRIES S.R.O., priority 2020, dated 2026):

What was measured:
[1] = Polymorphic stability at up to 100% relative humidity at room temperature; format: physicochemical
[2] = Hygroscopicity of the crystalline form; format: physicochemical; conditions: solid state form

time polymorphically stable [1]: at least 7 days | hygroscopicity [2]: non-hygroscopic
SMILES: CC(C)CC(=O)Nc1cncc(-c2ccc3[nH]nc(-c4nc5c(-c6cccc(F)c6)cncc5[nH]4)c3c2)c1 [Form Q, N-[5-[3-[7-(3-fluorophenyl)-3H-imidazo[4,5-c]pyridin-2-yl]-1H-indazol-5-yl]pyridin-3-yl]-3-methylbutanamide]
